Among the data in BindingDB's records for doi:10.1021/jm801627a (Vernalis (R&D), 2009) are IC50 values, retold here.

This assay has as its target Heat shock 70 kDa protein 1A (Homo sapiens, UniProt P0DMV8). Description: HSP70 Fluorescence Polarization Assay. The conditions noted are these: pH 7.4; 23 °C. As for the experimental part:
A fluorescein-labeled ATP-based probe was utilized, which binds to the GST fused ATPase domain (amino acids 3-383) of HSP70, producing an increase in mP. The presence of a compound which competitively binds to the same site as the probe would lead to decreased mP values, by increasing the amount of free probe. Compounds were tested as 10-point IC50s. Assay mixtures were incubated for three hours prior to reading on the Fusion (ex 485 nm; em 535 nm). The data was fitted using a 4 parameter logistical data model by XLFit 4 (IDBS).
In general terms: Fluorescence polarisation rises when a labelled molecule tumbles more slowly, as on binding a larger partner.

A value given as a limit tells only on which side of the number the result lay.

Chain of Heat shock 70 kDa protein 1A (P0DMV8 whole entry, the tested form may be a part): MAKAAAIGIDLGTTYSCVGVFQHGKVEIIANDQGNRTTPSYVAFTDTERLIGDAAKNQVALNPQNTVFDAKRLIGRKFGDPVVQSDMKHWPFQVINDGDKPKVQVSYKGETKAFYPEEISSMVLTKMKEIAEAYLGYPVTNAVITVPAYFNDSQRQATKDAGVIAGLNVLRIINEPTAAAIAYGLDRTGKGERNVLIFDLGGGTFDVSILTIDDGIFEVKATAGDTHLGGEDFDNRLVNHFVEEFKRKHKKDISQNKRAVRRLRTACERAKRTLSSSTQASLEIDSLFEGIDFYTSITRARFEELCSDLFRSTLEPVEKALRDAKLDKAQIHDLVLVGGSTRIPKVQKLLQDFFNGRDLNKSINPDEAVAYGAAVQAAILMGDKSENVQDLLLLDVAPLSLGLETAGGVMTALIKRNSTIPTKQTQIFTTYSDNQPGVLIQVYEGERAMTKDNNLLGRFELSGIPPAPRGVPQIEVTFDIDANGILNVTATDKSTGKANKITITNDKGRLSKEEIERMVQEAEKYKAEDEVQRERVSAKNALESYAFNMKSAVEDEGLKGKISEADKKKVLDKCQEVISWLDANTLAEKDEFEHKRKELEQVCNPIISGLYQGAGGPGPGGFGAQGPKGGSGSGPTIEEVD

On to `Nc1ncnc2c1nc(NCc1ccc3ncccc3c1)n2[C@@H]1O[C@H](COCc2cc(F)c(F)c(F)c2)[C@@H](O)[C@H]1O` [adenosine-derived inhibitor, 17], for which the IC50 (as a rule, the concentration that inhibits the measured activity by half) was less than 400 nM.
